Data: patent publication US8784633B2, “Automatic positioning and sensing microelectrode arrays” (priority 2007, dated 2014)

Tested on: cortical neurons
Experiment: Multi-site recording of extracellular spontaneous electrophysiological activity of cortical neuronal networks on APSMEA
Type: cell-based, rat
Method: FIG. 3 is a process flow diagram 300 of a process for controlling movement of target cells into a predetermined location using negative DEP forces. At 302, target cells (e.g., neuronal cells) in suspension are introduced onto a APSMEA device 100. The target cells are prepared according to institutional guidelines for care and use of animals. For example, to obtain neuronal cells, cortical neurons are excised from 18-day rat embryos and dissociated by trituration after digestion with papain (20 U/ml). The neurons are then resuspended in Neurobasal medium with B27 supplement and 500 μM glutamine. The medium initially added to new cultures are also supplemented with 25 μM glutamate and 25 μM β-mercaptoethanol. With four different concentrations, i.e., 1×10^5 cells/ml, 2×10^5 cells/ml, 5×10^5 cells/ml and 1×10^6 cells/ml, neurons are seeded on the APSMEA device 100 after coating with poly-L-lysine (50 μg/ml) and laminin (10 μg/ml).
FIG. 6a-c represent results of multi-site recordings of extracellular spontaneous electrophysiological activities from cortical neuronal networks (14 DIV) for control (no DEP forces applied) and manipulated (with DEP forces applied) cells at the seeding cell concentration of 5×10^5 cells/ml. Multi-site electrophysiological recordings in this and other implementations can be performed with the APSMEA device connected with a commercial multi-channel amplifier and filtering stage (Cyberkinetics, Salt Lake City, Utah). Measurements are carried out in 14 days old cortical cultures at 37° C., allowing the signals from the recording electrodes 122 amplified (×5000), band-pass filtered (250-7500 Hz), and sampled at 30 kHz/channel on 25 channels simultaneously. Using ±3 times of the standard deviation of the noise level as the threshold value for each channel, electrophysiological activities are detected on-line or off-line. NMDA (5 μM) and APV (5 μM) are also applied in the culture medium, and their related electrophysiological activities before and after any drug (e.g., chemical compounds) administration are both recorded for 10 min. […]

[1] = 5 μM in culture medium, cortical neurons 14 DIV, 10 min recording, n=4 separate APSMEAs

CN[C@H](CC(=O)O)C(=O)O [NMDA]
induced activity level relative to controls [1]: increase three times more than that of controls

TTX
effect on recorded extracellular action potentials (electrical activities): inhibited

N[C@@H](CCCP(=O)(O)O)C(=O)O [APV]
electrical activity level (sum of spikes over all active sites) compared with no drug added control [1]: 7.8±7.5 % of control
